Results from US12139492B2 (Endotarget Inc., priority 2021, dated 2024).
Read-outs that look alike come from different tables or passages of the source.

Assays:
BTK = BTK (Homo sapiens, UniProt Q06187); test: Degradation of BTK protein in Namalwa cells (Western blot; DC50, Dmax); conditions: for DC50: cell line not given
JeKo-1 cells = test: Antiproliferative effect, MTS cell viability assay, JeKo-1 cells; assay type: cell-based; conditions: Homo sapiens; JeKo-1 mantle cell lymphoma cells; read-out: IC50 (anti-proliferation) JeKO-1 cells
Summary of the method: (§1)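 MTS read-out, A490 of formazan from metabolically active cells; compound 0–10 μM (0, 0.001, 0.01, 0.1, 1, 10 μM), 72 h exposure.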

Mino cells = test: Antiproliferative effect, MTS cell viability assay, Mino cells; assay type: cell-based; conditions: Homo sapiens, MINO, Mino mantle cell lymphoma cells; read-out: IC50 (anti-proliferation) Mino cells
Summary of the method: as §1

[1] = read-out: DC50 (BTK degradation), concentration giving 50% reduction of BTK expression level
[2] = read-out: Dmax (BTK degradation)

BTK, sequence (Q06187 whole entry): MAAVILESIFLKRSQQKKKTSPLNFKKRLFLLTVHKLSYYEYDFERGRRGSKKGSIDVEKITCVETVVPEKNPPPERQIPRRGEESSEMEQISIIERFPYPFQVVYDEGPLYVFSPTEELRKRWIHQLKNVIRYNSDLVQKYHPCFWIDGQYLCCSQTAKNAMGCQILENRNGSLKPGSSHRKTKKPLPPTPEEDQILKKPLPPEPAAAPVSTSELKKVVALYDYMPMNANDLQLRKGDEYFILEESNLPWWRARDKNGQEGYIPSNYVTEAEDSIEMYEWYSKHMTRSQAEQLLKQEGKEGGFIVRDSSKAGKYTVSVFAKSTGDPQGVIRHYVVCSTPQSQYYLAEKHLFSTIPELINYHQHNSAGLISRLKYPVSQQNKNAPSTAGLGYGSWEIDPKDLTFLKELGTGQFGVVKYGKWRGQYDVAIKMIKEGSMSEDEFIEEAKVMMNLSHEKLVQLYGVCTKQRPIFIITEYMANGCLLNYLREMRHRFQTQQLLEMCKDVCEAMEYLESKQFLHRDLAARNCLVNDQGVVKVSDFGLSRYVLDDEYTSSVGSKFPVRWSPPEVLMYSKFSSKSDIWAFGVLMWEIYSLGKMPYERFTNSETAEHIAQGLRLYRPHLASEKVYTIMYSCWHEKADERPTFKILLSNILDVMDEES

SMILES	DC50 (BTK; [1])	Dmax (BTK; [2])	degradation of BTK protein (BTK; Namalwa B lymphocyte cells, various concentrations, 24 hours, Western blot)	Dmax (BTK)	DC50 (BTK; BTK degradation)	IC50 (JeKo-1 cells)	IC50 (Mino cells)
NC1=NC=NC2C1C(c1ccc(Oc3ccccc3)cc1)=NN2C1CCN(C(=O)N2CCN(C3CN(c4ccc5c(c4)C(=O)N(C4CCC(=O)NC4=O)C5=O)C3)CC2)CC1 (stereo not drawn) [Compound 503, 5-(3-(4-(4-(4-amino-3-(4-phenoxyphenyl)-3a,7a-dihydro-1H-pyrazolo[3,4-d]pyrimidin-1-yl)piperidine-1-carbonyl)piperazin-1-yl)azetidin-1-yl)-2-(2,6-dioxopiperidin-3-yl)isoindoline-1,3-dione]	0.01 to 0.05 µM	> 75%				< 1 µM	< 1 µM
Nc1ncnc2c1c(-c1ccc(Oc3ccccc3)cc1)nn2C1CCN(C2CCN(CC3CCN(c4ccc5c(c4)C(=O)N(C4CCC(=O)NC4=O)C5=O)C3)C2)CC1 (stereo not drawn) [Compound 451, 5-(3-((3-(4-(4-amino-3-(4-phenoxyphenyl)-1H-pyrazolo[3,4-d]pyrimidin-1-yl)piperidin-1-yl)pyrrolidin-1-yl)methyl)pyrrolidin-1-yl)-2-(2,6-dioxopiperidin-3-yl)isoindoline-1,3-dione]	< 0.01 µM	> 90%	dose-dependent degradation			1 to 10 µM	< 1 µM
NC(=O)c1c(-c2ccc(Oc3ccccc3)cc2)nn2c1NCC[C@H]2C1CCN(C(=O)N2CCC(CCN3CCC(c4ccc5c(c4)C(=O)N(C4CCC(=O)NC4=O)C5=O)CC3)CC2)CC1 (stereo partly drawn) [Compound 301, (7S)-7-(1-(4-(2-(4-(2-(2,6-dioxopiperidin-3-yl)-1,3-dioxoisoindolin-5-yl)piperidin-1-yl)ethyl)piperidine-1-carbonyl)piperidin-4-yl)-2-(4-phenoxyphenyl)-4,5,6,7-tetrahydropyrazolo[1,5-a]pyrimidine-3-carboxamide]				> 75%	0.01 to 0.05 µM	1 to 10 µM	1 to 10 µM
NC(=O)c1c(-c2ccc(Oc3ccccc3)cc2)nn2c1NCCC2C1CCN(C2CCN(C(=O)N3CCN(CC4CCN(c5ccc6c(c5)C(=O)N(C5CCC(=O)NC5=O)C6=O)CC4)CC3)CC2)CC1 (stereo not drawn) [Compound 351, 7-(1′-(4-((1-(2-(2,6-dioxopiperidin-3-yl)-1,3-dioxoisoindolin-5-yl)piperidin-4-yl)methyl)piperazine-1-carbonyl)-[1,4′-bipiperidin]-4-yl)-2-(4-phenoxyphenyl)-4,5,6,7-tetrahydropyrazolo[1,5-a]pyrimidine-3-carboxamide]				> 90%	0.01 to 0.05 µM	1 to 10 µM	< 1 µM
Nc1ncnc2c1c(-c1ccc(Oc3ccccc3)cc1)nn2[C@@H]1CCCN(CC2CCN(CC3CCN(c4ccc(C(=O)NC5CCC(=O)NC5=O)cc4)CC3)CC2)C1 (stereo partly drawn) [Compound 515, 4-(4-((4-(((R)-3-(4-amino-3-(4-phenoxyphenyl)-1H-pyrazolo[3,4-d]pyrimidin-1-yl)piperidin-1-yl)methyl)piperidin-1-yl)methyl)piperidin-1-yl)-N-(2,6-dioxopiperidin-3-yl)benzamide]	< 0.01 µM	> 90%				1 to 10 µM	< 1 µM
NC(=O)c1c(-c2ccc(Oc3ccccc3)cc2)nn2c1NCC[C@H]2C1CCN(C2CCN(CCN3CCN(c4ccc5c(c4)CN(C4CCC(=O)NC4=O)C5=O)CC3)CC2)CC1 (stereo partly drawn) [Compound 324, (7S)-7-(1′-(2-(4-(2-(2,6-dioxopiperidin-3-yl)-1-oxoisoindolin-5-yl)piperazin-1-yl)ethyl)-[1,4′-bipiperidin]-4-yl)-2-(4-phenoxyphenyl)-4,5,6,7-tetrahydropyrazolo[1,5-a]pyrimidine-3-carboxamide]				> 75%	> 0.05 µM	1 to 10 µM	1 to 10 µM
NC(=O)c1c(-c2ccc(Oc3ccccc3)cc2)nn2c1NCC[C@H]2C1CCN(C2CCN(C(=O)N3CCC(CN4CCC(c5ccc6c(c5)C(=O)N(C5CCC(=O)NC5=O)C6=O)CC4)CC3)CC2)CC1 (stereo partly drawn) [Compound 395, (7S)-7-(1′-(4-((4-(2-(2,6-dioxopiperidin-3-yl)-1,3-dioxoisoindolin-5-yl)piperidin-1-yl)methyl)piperidine-1-carbonyl)-[1,4′-bipiperidin]-4-yl)-2-(4-phenoxyphenyl)-4,5,6,7-tetrahydropyrazolo[1,5-a]pyrimidine-3-carboxamide]	0.01 to 0.05 µM	> 75%				1 to 10 µM	1 to 10 µM
Nc1ncnc2c1c(-c1ccc(Oc3ccccc3)cc1)nn2C1CCC(C(=O)N2CC(C3CCN(c4ccc5c(c4)CN(C4CCC(=O)NC4=O)C5=O)CC3)C2)CC1 (stereo not drawn) [Compound 514, 3-(5-(4-(1-(4-(4-amino-3-(4-phenoxyphenyl)-1H-pyrazolo[3,4-d]pyrimidin-1-yl)cyclohexane-1-carbonyl)azetidin-3-yl)piperidin-1-yl)-1-oxoisoindolin-2-yl)piperidine-2,6-dione]	< 0.01 µM	> 90%				< 1 µM	< 1 µM

The next lines start with results.

DC50 (BTK; [1])	Dmax (BTK; [2])	degradation of BTK protein (BTK; Namalwa B lymphocyte cells, various concentrations, 24 hours, Western blot)	Dmax (BTK)	DC50 (BTK; BTK degradation)	SMILES	IC50 (JeKo-1 cells)	IC50 (Mino cells)
			> 90%	< 0.01 µM	Nc1ncnc2c1c(-c1ccc(Oc3ccccc3)cc1)nn2C1CCN(C2CCN(C(=O)N3CCC(CCC4CCN(c5ccc6c(c5)CN(C5CCC(=O)NC5=O)C6=O)CC4)CC3)CC2)CC1 (stereo not drawn) [Compound 256, 3-(5-(4-(2-(1-(4-(4-amino-3-(4-phenoxyphenyl)-1H-pyrazolo[3,4-d]pyrimidin-1-yl)-[1,4′-bipiperidine]-1′-carbonyl)piperidin-4-yl)ethyl)piperidin-1-yl)-1-oxoisoindolin-2-yl)piperidine-2,6-dione]	1 to 10 µM	< 1 µM
			> 50%	> 0.05 µM	NC(=O)c1c(-c2ccc(Oc3ccccc3)cc2)nn2c1NCCC2C1CCN(CC2CCN(C(=O)N3CCN(c4ccc5c(c4)CN(C4CCC(=O)NC4=O)C5=O)CC3)CC2)CC1 (stereo not drawn) [Compound 358, 7-(1-((1-(4-(2-(2,6-dioxopiperidin-3-yl)-1-oxoisoindolin-5-yl)piperazine-1-carbonyl)piperidin-4-yl)methyl)piperidin-4-yl)-2-(4-phenoxyphenyl)-4,5,6,7-tetrahydropyrazolo[1,5-a]pyrimidine-3-carboxamide]	> 10 µM	> 10 µM
			> 90%	0.01 to 0.05 µM	Nc1ncnc2c1c(-c1ccc(Oc3ccccc3)cc1)nn2C1CCN(CC2CCN(CCN3CCC(c4ccc5c(c4)C(=O)N(C4CCC(=O)NC4=O)C5=O)CC3)CC2)CC1 (stereo not drawn) [Compound 205, 5-(1-(2-(4-((4-(4-amino-3-(4-phenoxyphenyl)-1H-pyrazolo[3,4-d]pyrimidin-1-yl)piperidin-1-yl)methyl)piperidin-1-yl)ethyl)piperidin-4-yl)-2-(2,6-dioxopiperidin-3-yl)isoindoline-1,3-dione]	1 to 10 µM	< 1 µM
	> 90%				Nc1ncnc2c1c(-c1ccc(Oc3ccccc3)cc1)nn2C1CCN([C@H]2CCN(CC3CN(c4ccc5c(c4)C(=O)N(C4CCC(=O)NC4=O)C5=O)C3)C2)CC1 (stereo partly drawn) [Compound 425b, 5-(3-(((S)-3-(4-(4-amino-3-(4-phenoxyphenyl)-1H-pyrazolo[3,4-d]pyrimidin-1-yl)piperidin-1-yl)pyrrolidin-1-yl)methyl)azetidin-1-yl)-2-(2,6-dioxopiperidin-3-yl)isoindoline-1,3-dione]	1 to 10 µM	1 to 10 µM
